Assay results taken from patent publication US20240197596A1, “COMPOUNDS USEFUL AS HAIR DYES” (National University of Singapore, priority 2021, published 2024).
Several values for one entry are separate records, joined by “and”; a condition that tells them apart may be missing. Equal values may be shown once.

Columns and labels:
Hair nuance test = test: Hair nuance test; design: key to L* / a* / b*: CIELAB L*, a*, b* coordinates; key to ΔE (total colour difference to natural hair): ΔE = √((L*−L0)²+(a*−a0)²+(b*−b0)²) vs untreated hair; conditions: for eventual colour of bleached hair, Type B: Type B (Oxidative, H2O2) formulation; for eventual colour of bleached hair, Type C: Type C (Oxidative with coupler resorcinol) formulation; for eventual colour of bleached hair, Type A: Type A (Non-oxidative) formulation
Method: 35 g of bleaching powder was mixed with 50 mL of developer then applied onto undyed black hair (wrapped in aluminium foil to enhance the bleaching process) and left on for 45 min. The hair was then rinsed with deionized water and shampoo and left to dry. This process was repeated twice.
Hair dye formulations were prepared from N1-N13 according to methods reported (New Journal of Chemistry. 2019; 43(41):16188-99), and with the compositions stated in Table 11 Bleached hair samples were immersed into the respective formulations for 20 min, then air dried for 20 min. Then they were shampooed twice and treated with conditioner for 5 min.
SkinColorCatch (Delfin Technologies Ltd, Kuopio, Finland) was used to measure CIELAB tristimulus L*, a* and b* values of the dyed hair samples and baseline L0, a0, b0 values from untreated hair. The difference in colour tone (ΔH) and the total colour difference (ΔE) were then derived from the values obtained with the equations below:
ΔH=√{square root over ((a*−a0)^2+(b*−b0)^2)}
ΔE=√{square root over ((L*−L0)^2+(a*−a0)^2+(b*−b0)^2)}

[1] = Skin permeation study, Franz diffusion cell; assay type: in vitro ADME, porcine; conditions: for Cumulative amount at 8th hour: 1% w/v in deionized water; for Cumulative amount at 8th hour / Permeated through skin into receptor / Recovered in donor compartment / Recovered in skin / Recovered in skin outside diffusion area / Recovered in skin swabs / Recovered on parafilm and in washes / Cumulative amount comparison of PPD vs derivatives (times less than PPD): 8 h; for Permeated through skin into receptor / Recovered in donor compartment / Recovered in skin / Recovered in skin outside diffusion area / Recovered in skin swabs / Recovered on parafilm and in washes: mass balance; for recovery at 8 h, 1 % w/v: pig, end of 8 h, read-out: Total recovery (mean percentage parent compound recovery)
Method: In each Franz cell, a piece of pig ear skin prepared to a thickness of […] was clamped securely. 5 mL of PBS solution was added to the receiver compartment which was purged of air bubbles to ensure maximal contact of the skin piece with the solution. Donor solution was prepared by dissolving N1-N13 in deionized water at 1% w/v, and 900 μL was added to the donor compartment. The study was conducted for 8 h, and aliquots of 200 μL were removed from the receiver solution and topped up with fresh PBS at each timepoint of 15-minutes intervals for the first hour and every hour after that.
For mass balance, at the end of 8 h, skin pieces and swabs of the top and bottom surface of the skin were collected and stored in ACN for N1-N13 extraction. Donor solution and receiver solution were also collected.
The aliquot samples collected were subjected to 2-step extraction using 750 μL of dichloromethane (DCM). […] The solvent was dried using the TurboVap, and then reconstituted with 198 μL of 0.1% formic acid in 50% methanol in water and spiked with 2 μL of ANP (internal standard). The processed aliquot samples and mass balance samples were then sent for analysis using LC-MS/MS. The compounds' steady state fluxes and permeability coefficients were then calculated by fitting the solution to Fick's […] of diffusion at the steady state (linear part) of each experimental cumulative amount curve.

THP-1 cells = test: MTT assay on THP-1 cells (CV75); assay type: cell-based, human; conditions: THP-1 cells, 24 h
Method: THP-1 (human acute monocytic leukaemia cell line) cell suspension was adjusted to 1×10^5 cells per well and seeded in 96-well plates. The plate was incubated at 37° C. with 5% CO2. After 24 h, 10 mM stock solutions of N1-N13 were prepared in autoclaved milli-Q water. A series of concentrations diluted in media was prepared and added to the wells. Each concentration was performed in 6-replicates, and seeded wells with only media and no compound were used as controls while wells with only media were used as blanks. The plate was incubated for 24 h, after which 100 μL of MTT reagent was added and the plate was further incubated for 3 h before adding 100 μL of DMSO. Subsequently, the plate was shaken for 20 min, and then absorbance at 570 nm was determined using a Bio-Tek plate reader. Percentage cell viability was calculated and CV75 values were determined.

[2] = Type C (Oxidative with coupler resorcinol)

Permeated through skin into receptor [1] | Recovered in donor compartment [1] | Recovered in skin [1] | Recovered in skin outside diffusion area [1] | Recovered in skin swabs [1] | Structure (SMILES) | L* (Hair nuance test; Type A (Non-oxidative)) | a* (Hair nuance test; Type A (Non-oxidative)) | b* (Hair nuance test; Type A (Non-oxidative)) | ΔE (total colour difference to natural hair) (Hair nuance test; Type A (Non-oxidative)) | ΔH (difference in colour tone) (Hair nuance test; Type A (Non-oxidative)) | L* (Hair nuance test; Type B (Oxidative)) | a* (Hair nuance test; Type B (Oxidative)) | b* (Hair nuance test; Type B (Oxidative)) | ΔH (difference in colour tone) (Hair nuance test; Type B (Oxidative)) | L* (Hair nuance test; [2]) | a* (Hair nuance test; [2]) | b* (Hair nuance test; [2]) | ΔE (total colour difference to natural hair) (Hair nuance test; [2]) | ΔH (difference in colour tone) (Hair nuance test; [2]) | eventual colour of bleached hair, Type C (Hair nuance test) | further results
<0.001 % of applied compound dose | 96.7 % of applied compound dose | 0.05 % of applied compound dose | 0.0015 % of applied compound dose | 0.04 % of applied compound dose | COC(COc1cc(N)ccc1N)OC [Compound N1, 2-(2,2-dimethoxyethoxy)benzene-1,4-diamine] | 23 | 12 | 8 | 19.7 | 13.9 | 9 | −0 | −1 | 2.0 | 21 | 18 | 8 | 22.7 | 19.3 | Dark brown | ΔE (total colour difference to natural hair) (Hair nuance test; Type B (Oxidative)): 2.0; eventual colour of bleached hair, Type B (Hair nuance test): black colour; Cumulative amount at 8th hour [1]: 0.0073 μg/cm^2; Recovered on parafilm and in washes [1]: 0.003 % of applied compound dose; recovery at 8 h, 1 % w/v [1]: 96 ± 1.26%; CV75 (concentration affording 75% cell viability), 1 × CV75 (THP-1 cells): 143.4 µg/mL
<0.001 % of applied compound dose | 98.2 % of applied compound dose | 0.04 % of applied compound dose | 0.0024 % of applied compound dose | 0.05 % of applied compound dose | COCOc1cc(N)ccc1N [Compound N2, 2-(methoxymethoxy)benzene-1,4-diamine] | 11 | 1 | −2 | 3.7 | 3.16 | 9 | 0 | −1 | 2.0 | 21 | 17 | 6 | 21.4 | 17.7 | Black | eventual colour of bleached hair, Type A (Hair nuance test): Walnut brown; ΔE (total colour difference to natural hair) (Hair nuance test; Type B (Oxidative)): 2.0; Cumulative amount comparison of PPD vs derivatives (times less than PPD) [1]: 453.7; Recovered on parafilm and in washes [1]: 0.004 % of applied compound dose; recovery at 8 h, 1 % w/v [1]: 98 ± 1.33%; CV75 (concentration affording 75% cell viability), 1 × CV75 (THP-1 cells): 72.4 µg/mL
<0.001 % of applied compound dose | 97.2 % of applied compound dose | 0.01 % of applied compound dose | 0.004 % of applied compound dose | 0.04 % of applied compound dose | CCOCOc1cc(N)ccc1N [Compound N3, 2-(ethoxymethoxy)benzene-1,4-diamine] | 19 | 5 | 4 | 11.6 | 5.8 | 9 | 0 | −1 | 2.0 | 17 | −1 | 2 | 8.1 | 1.4 | Brownish black | eventual colour of bleached hair, Type A (Hair nuance test): Black; eventual colour of bleached hair, Type B (Hair nuance test): black colour; Cumulative amount at 8th hour [1]: 0.0088 μg/cm^2 and 0.00875 μg/cm^2; Recovered on parafilm and in washes [1]: 0.005 % of applied compound dose; recovery at 8 h, 1 % w/v [1]: 97 ± 1.05%; CV75 (concentration affording 75% cell viability), 1 × CV75 (THP-1 cells): 115 µg/mL
<0.001 % of applied compound dose | 95.0 % of applied compound dose | 0.06 % of applied compound dose | 0.0018 % of applied compound dose | 0.02 % of applied compound dose | Nc1ccc(N)c(OCOCO)c1 [Compound N8, ((2,5-diaminophenoxy)methoxy)methanol] | 12 | −1 | 6 | 5.91 | 2.43 | 9 | 0 | −1 | 1.41 | 10 | 0 | 3 | 2.23 | 1.49 | Brown | eventual colour of bleached hair, Type A (Hair nuance test): Black; ΔE (total colour difference to natural hair) (Hair nuance test; Type B (Oxidative)): 2; eventual colour of bleached hair, Type B (Hair nuance test): black colour; Cumulative amount at 8th hour [1]: 0.00843 μg/cm^2; Cumulative amount comparison of PPD vs derivatives (times less than PPD) [1]: 640; Recovered on parafilm and in washes [1]: 0.004 % of applied compound dose; recovery at 8 h, 1 % w/v [1]: 95.1 ± 1.3%; CV75 (concentration affording 75% cell viability), 1 × CV75 (THP-1 cells): 141 µg/mL
<0.001 % of applied compound dose | 94.5 % of applied compound dose | 0.05 % of applied compound dose | 0.0022 % of applied compound dose | 0.03 % of applied compound dose | Nc1ccc(N)c(OCCO)c1 [Compound N9, 2-(2,5-diaminophenoxy)ethan-1-ol] | 23 | 8 | 10 | 18.46 | 4.29 | 32 | 0 | 4 | 4.81 | 29 | 19 | 19 | 32.93 | 5.73 | vibrant blue colours and Blue | eventual colour of bleached hair, Type A (Hair nuance test): brown colour; ΔE (total colour difference to natural hair) (Hair nuance test; Type B (Oxidative)): 23.19; eventual colour of bleached hair, Type B (Hair nuance test): brown colour; Cumulative amount comparison of PPD vs derivatives (times less than PPD) [1]: 445; Recovered on parafilm and in washes [1]: 0.003 % of applied compound dose; recovery at 8 h, 1 % w/v [1]: 94.6 ± 1.5%; CV75 (concentration affording 75% cell viability), 1 × CV75 (THP-1 cells): 126 µg/mL
<0.001 % of applied compound dose | 95.0 % of applied compound dose | 0.04 % of applied compound dose | 0.003 % of applied compound dose | 0.05 % of applied compound dose | CC(O)COc1cc(N)ccc1N (centres unmarked) [Compound N10, 1-(2,5-diaminophenoxy)propan-2-ol] | 25 | 12 | 6 | 20.61 | 4.53 | 11 | 1 | −2 | 1.93 | 30 | 18 | 18 | 32.46 | 5.69 | Brown | eventual colour of bleached hair, Type A (Hair nuance test): Brownish Purple; ΔE (total colour difference to natural hair) (Hair nuance test; Type B (Oxidative)): 3.74; eventual colour of bleached hair, Type B (Hair nuance test): black colour; Cumulative amount at 8th hour [1]: 0.008 μg/cm^2; Cumulative amount comparison of PPD vs derivatives (times less than PPD) [1]: 633; Recovered on parafilm and in washes [1]: 0.006 % of applied compound dose; recovery at 8 h, 1 % w/v [1]: 95.1 ± 1.4%; CV75 (concentration affording 75% cell viability), 1 × CV75 (THP-1 cells): 117 µg/mL
